Data published in US20120231972A1, “Probe Compound for Detecting and Isolating Enzymes and Means and Methods Using the Same” (priority 2009, published 2012).
In brackets after ≈: the same amount, converted by molar mass.

Test: physchem
Type: physicochemical
Conditions: water

For `CC[N+]1=C(/C=C/C=C2/N(CCCCCC(=O)N[C@H](Cc3c[nH]cn3)C(=O)O)c3ccc(S(=O)(=O)[O-])cc3C2(C)C)C(C)(C)c2cc(S(=O)(=O)NCCCC(=O)OCCN(C)C)ccc21` [compound (E), Cy3-His-4-amino-3-butyric acid (N,N-dimethylamino) ethylester], the solubility was about 240 mM (≈ 222 mg/mL).
